pIC50: −log10 of the molar value. Read-outs that look alike come from different tables or passages of the source.
Tests used:
[1] = tested on: IFNα-stimulated Kit225 T cells with STAT-dependent luciferase reporter; experiment: Kit225 T cell assay, STAT-dependent luciferase reporter, IFNα stimulated; assay type: cell-based, human; conditions: 5-6 hours, read-out: IFNa Kit225 Reporter, LE (IC50)
Method: (§1) Kit225 T cells with a stably-integrated STAT-dependent luciferase reporter were plated in RPMI (GIBCO) containing 10% heat-inactivated FBS (GIBCO) and 100 U/mL PenStrep (GIBCO). The cells were then stimulated with either 20 ng/mL human recombinant IL-23 or 200 U/mL human recombinant IFNα (PBL InterferonSource) for 5-6 hours. Luciferase expression was measured using the STEADY-GLO® Luciferase Assay System (PROMEGA®) according to the manufacturer's instructions.

[2] = tested on: IL-23-stimulated Kit225 T cells with STAT-dependent luciferase reporter; experiment: Kit225 T cell assay, STAT-dependent luciferase reporter, IL-23 stimulated; assay type: cell-based, human; conditions: read-out: IL-23 Kit225 Reporter, LE (IC50)
Method: as §1

[3] = 200 U/mL human recombinant IFNα
[4] = 20 ng/mL human recombinant IL-23, 5-6 hours
[5] = Homo sapiens, KIT225, 200 U/mL human recombinant IFNα
[6] = Homo sapiens, KIT225, 20 ng/mL human recombinant IL-23, 5-6 hours

SMILES | pIC50 [1, 3] | pIC50 [2, 4] | pIC50 [1, 5] | pIC50 [2, 6]
CNc1cc(Nc2cccn(C3(C)CC3)c2=O)nn2c(C(=O)NC3CC3)cnc12 [Example 161] | 6.47 | 6.15 | – | –
CCNC(=O)c1cnc2c(NC)cc(Nc3cccn(C)c3=O)nn12 [Example 210] | 6.41 | 6.66 | – | –
CNc1cc(Nc2cccn(C)c2=O)nn2c(C(=O)NC3(C#N)CC3)cnc12 [Example 1, N-(1-Cyanocyclopropyl)-6-(1-methyl-2-oxo-1,2-dihydropyridin-3-ylamino)-8-(methylamino)imidazo[1,2-b]pyridazine-3-carboxamide] | – | – | 6.51 | 6.32
CNc1cc(Nc2cccn(-c3ccc(C(C)(C)O)cc3)c2=O)nn2c(C(=O)NC3(C#N)CC3)cnc12 [Example 27] | 6.35 | 6.18 | – | –
CNc1cc(Nc2cccn(-c3ccc(F)nc3)c2=O)nn2c(C(=O)NC3(C#N)CC3)cnc12 [Example 28] | 6.52 | 6.22 | – | –
CNc1cc(Nc2ccnn(-c3ccccc3)c2=O)nn2c(C(=O)NC3CCC3)cnc12 [Example 8, N-Cyclobutyl-8-(methylamino)-6-((3-oxo-2-phenyl-2,3-dihydropyridazin-4-yl)amino)imidazo[1,2-b]pyridazine-3-carboxamide] | – | – | 6.42 | 6.17
CNc1cc(Nc2cccn(C3CC3)c2=O)nn2c(C(=O)NC3(C#N)CC3)cnc12 [Example 45] | 6.70 | 6.43 | – | –
CNc1cc(Nc2cc(Cl)cn(C)c2=O)nn2c(C(=O)NC3CC3)cnc12 [Example 22] | 7.30 | 6.82 | – | –
CNc1cc(Nc2cccn(C)c2=O)nn2c(C(=O)NCC(C)(C)CO)cnc12 [Example 9, N-(3-Hydroxy-2,2-dimethylpropyl)-6-((1-methyl-2-oxo-1,2-dihydropyridin-3-yl)amino)-8-(methylamino)imidazo[1,2-b]pyridazine-3-carboxamide] | – | – | 7.40 | 6.92
CCC(C)NC(=O)c1cnc2c(NC)cc(Nc3cccn(C)c3=O)nn12 (single isomer, unassigned) [Example 72] | 6.36 | 6.34 | – | –
CNc1cc(Nc2cccn(-c3ccccc3)c2=O)nn2c(C(=O)N[C@@H]3CCOC3)cnc12 [Example 7, (R)-8-(Methylamino)-6-((2-oxo-1-phenyl-1,2-dihydropyridin-3-yl)amino)-N-(tetrahydrofuran-3-yl)imidazo[1,2-b]pyridazine-3-carboxamide] | – | – | 6.52 | 6.57
CNc1cc(Nc2cccn(C(C)C)c2=O)nn2c(C(=O)NC3CC3)cnc12 [Example 213] | 6.38 | 6.64 | – | –
CNc1cc(Nc2cccn(C3CCN(C(=O)C4CCCO4)CC3)c2=O)nn2c(C(=O)NC3CC3)cnc12 (centres unmarked) [Example 247] | – | – | 6.46 | 6.38
CNc1cc(Nc2cccn(C3(C)CC3)c2=O)nn2c(C(=O)NC3(C#N)CC3)cnc12 [Example 162] | 6.60 | 6.19 | – | –
CNc1cc(Nc2cccn(C)c2=O)nn2c(C(=O)NCC(C)(C)CO)cnc12 [Example 117] | 6.82 | 6.62 | – | –
CNc1cc(Nc2cc(F)cn(CC3CC3)c2=O)nn2c(C(=O)NC3CC3)cnc12 [Example 15] | 6.57 | 6.72 | – | –
CNc1cc(Nc2cccn(C(C)(C)C)c2=O)nn2c(C(=O)NC3(C#N)CC3)cnc12 [Example 219] | 7.15 | 6.60 | – | –
CNc1cc(Nc2cccn(C)c2=O)nn2c(C(=O)NC3CCCC3)cnc12 [Example 208] | 7.22 | 7.10 | – | –
CCC(C)NC(=O)c1cnc2c(NC)cc(Nc3cncn(-c4ccccn4)c3=O)nn12 (single isomer, unassigned) [Example 76] | 6.25 | 6.39 | – | –
CNc1cc(Nc2cccn(-c3ccc(N4CCOCC4)cc3)c2=O)nn2c(C(=O)NC3CC3)cnc12 [Example 139] | 6.72 | 6.60 | – | –
CNc1cc(Nc2cccn(-c3ncccn3)c2=O)nn2c(C(=O)NC3CCCC3)cnc12 [Example 170] | 6.43 | 6.72 | – | –

The remaining lines, values ahead:

pIC50 [1, 3] | pIC50 [2, 4] | pIC50 [1, 5] | pIC50 [2, 6] | SMILES
6.62 | 5.93 | – | – | CNc1cc(Nc2cccn(-c3nc4ccccc4[nH]3)c2=O)nn2c(C(=O)NC3CC3)cnc12 [Example 223]
7.52 | 7.40 | – | – | CNc1cc(Nc2cccn(-c3ccc(C)nn3)c2=O)nn2c(C(=O)NC3CCC3)cnc12 [Example 64]
6.92 | 6.44 | – | – | CNc1cc(Nc2cccn(-c3ccccc3F)c2=O)nn2c(C(=O)NC3CC3)cnc12 [Example 152]
7.40 | 7.22 | – | – | CNc1cc(Nc2cccn(-c3ccc(C)nn3)c2=O)nn2c(C(=O)N[C@@H]3C[C@@H]3F)cnc12 [Example 65]
– | – | 7.30 | 6.80 | CCN(C)C(=O)c1ccc(-n2cccc(Nc3cc(NC)c4ncc(C(=O)N[C@@H]5C[C@@H]5F)n4n3)c2=O)nc1 [compound 263]
6.59 | 6.96 | – | – | CNc1cc(Nc2cccn(-c3ccc(C)nn3)c2=O)nn2c(C(=O)NCC(C)C)cnc12 [Example 200]
7.10 | 6.68 | – | – | CNc1cc(Nc2cccn(-c3ccn(C)n3)c2=O)nn2c(C(=O)NC(C)C)cnc12 [Example 108]
6.89 | 6.72 | – | – | CCC(C)NC(=O)c1cnc2c(NC)cc(Nc3cccn(-c4ccc(C)nn4)c3=O)nn12 (single isomer, unassigned) [Example 75]
7.52 | 7.40 | – | – | CNc1cc(Nc2cccn(-c3cc(C)n(C)n3)c2=O)nn2c(C(=O)NC3CC3)cnc12 [Example 154]
– | – | 7.05 | 6.80 | CNc1cc(Nc2cccn(-c3ccc(C#N)cc3)c2=O)nn2c(C(=O)NC3CC3)cnc12 [Example 2, 6-((1-(4-Cyanophenyl)-2-oxo-1,2-dihydropyridin-3-yl)amino)-N-cyclopropyl-8-(methylamino)imidazo[1,2-b]pyridazine-3-carboxamide]
7.70 | 7.52 | – | – | CNc1cc(Nc2cccn(-c3ccc(N4CCOCC4)cc3)c2=O)nn2c(C(=O)NC3CC3F)cnc12 (centres unmarked) [Example 147]
6.28 | 6.55 | – | – | CNc1cc(Nc2cccn(-c3cccnn3)c2=O)nn2c(C(=O)NCC(C)C)cnc12 [Example 112]
6.46 | 6.07 | – | – | CNc1cc(Nc2cccn(-c3ccccn3)c2=O)nn2c(C(=O)NC3CCC(O)C3(C)C)cnc12 (centres unmarked) [Example 236]
7.52 | 7.70 | – | – | CNc1cc(Nc2cccn(-c3ccc(F)cn3)c2=O)nn2c(C(=O)N[C@@H]3C[C@@H]3F)cnc12 [Example 37]
7.70 | 7.30 | – | – | CNc1cc(Nc2cccn(-c3ccn(C4CC4)n3)c2=O)nn2c(C(=O)N[C@@H]3C[C@@H]3F)cnc12 [Example 164]
6.80 | 6.44 | – | – | CNc1cc(Nc2cccn(-c3cccc(C)n3)c2=O)nn2c(C(=O)NC3CC3)cnc12 [Example 46]
7.70 | 7.52 | – | – | CNc1cc(Nc2cc(F)cn(-c3ccccn3)c2=O)nn2c(C(=O)N[C@@H]3C[C@@H]3F)cnc12 [Example 151]
– | – | 8.01 | 7.89 | CNc1cc(Nc2cccn(-c3cnc(C(=O)N(C)C)cn3)c2=O)nn2c(C(=O)N[C@@H]3C[C@@H]3F)cnc12 [Example 256, 6-((1-(5-(Dimethylcarbamoyl)pyrazin-2-yl)-2-oxo-1,2-dihydropyridin-3-yl)amino)-N-((1R,2S)-2-fluorocyclopropyl)-8-(methylamino)imidazo[1,2-b]pyridazine-3-carboxamide]
6.89 | 7.00 | – | – | CNc1cc(Nc2cccn(-c3cccc(F)n3)c2=O)nn2c(C(=O)NC3(C#N)CC3)cnc12 [Example 167]
7.52 | 7.22 | – | – | CNc1cc(Nc2cccn(-c3ccon3)c2=O)nn2c(C(=O)NC3CCC3)cnc12 [Example 56]
6.96 | 6.57 | – | – | CNc1cc(Nc2cccn(-c3ccc(C(C)(C)O)cc3)c2=O)nn2c(C(=O)NC3CC3)cnc12 [Example 26]
6.48 | 5.76 | – | – | CNc1cc(Nc2cncn(-c3ccc(C)nn3)c2=O)nn2c(C(=O)N[C@@H]3C[C@@H]3F)cnc12 [Example 80]
– | – | 7.55 | 7.51 | CNc1cc(Nc2cccn(-c3cnc(C(C)(C)O)cn3)c2=O)nn2c(C(=O)N[C@@H]3C[C@@H]3F)cnc12 [Example 255, N-((1R,2S)-2-Fluorocyclopropyl)-6-((1-(5-(2-hydroxypropan-2-yl)pyrazin-2-yl)-2-oxo-1,2-dihydropyridin-3-yl)amino)-8-(methylamino)imidazo[1,2-b]pyridazine-3-carboxamide]
6.42 | 6.31 | – | – | CNc1ccc(-n2cccc(Nc3cc(NC)c4ncc(C(=O)NC5CC5)n4n3)c2=O)cn1 [Example 206]
7.40 | 6.96 | – | – | CNc1cc(Nc2cccn(-c3cccc(C)n3)c2=O)nn2c(C(=O)NC3CCC3)cnc12 [Example 47]
6.74 | 6.80 | – | – | CNc1cc(Nc2cccn(-c3ccc(C(C)O)cc3)c2=O)nn2c(C(=O)N[C@@H]3C[C@@H]3F)cnc12 (some centres unmarked) [Example 141]
– | – | 7.40 | 7.05 | CNc1cc(Nc2cccn(-c3ccc(C(=O)N4CCC4)cn3)c2=O)nn2c(C(=O)N[C@@H]3C[C@@H]3F)cnc12 [compound 264]
7.30 | 7.30 | – | – | CNc1cc(Nc2cccn(-c3ncc(F)cn3)c2=O)nn2c(C(=O)NC3CCC3)cnc12 [Example 173]

— patent US10273237B2, “Imidazopyridazine compounds useful as modulators of IL-12, IL-23 and/or IFN-α responses” (BRISTOL-MYERS SQUIBB COMPANY, priority 2013, dated 2019)
